Measured values taken from US9730679B1, “Device for sterile uterine sampling and drug delivery” (University of South Florida, priority 2012, dated 2017).
≈ marks a conversion by molar mass, not a printed value.

Tests used:
[1] = tested on: Escherichia coli (ATCC 25922); experiment: Minimum inhibitory concentration, visual turbidimetric method with OD600 of MIC tubes; assay type: cell-based; conditions: ATCC25922, 4 h, E. coli, four hours incubation at 37° C., read-out: minimum inhibitory doxycycline concentration, MIC
Description: To determine the antibacterial activity of the doxycycline-loaded chitosan nanoparticles, minimum inhibitory concentrations (MICs) and minimum bactericidal concentrations (MBCs) were evaluated. The procedures for both assays were adopted from Lee et al. (Blanchet […]. Forward Selection of Explanatory Variables. Ecology. 2008; 89:2623-2632). MIC is the lowest concentration of DCNPs that inhibits bacterial growth. For the analyses, a visual turbidimetric method was used. Freshly prepared nanoparticles, blank and drug-loaded, were UV-sterilized for ten minutes. […] A 500 μL aliquot of this solution with sterilized particles was added to a tube containing Luria-Bertani (LB) broth for a total volume of 2 mL. A serial dilution, with a dilution factor of 0.3, was performed for the remaining six tubes. A parallel series of experiments was also run using unencapsulated doxycycline. Under sterile conditions, the tubes containing particles were inoculated with 1.0×10^5 colony-forming units (CFUs)/mL of Escherichia coli cells in LB broth, then incubated at 37° C. under agitation for four hours. Following the incubation, the tubes were assessed visually for the appearance of turbidity (i.e., bacterial growth). […] All MIC tubes were analyzed to assess the amount of bacteria present by measuring optical density of the suspension at 600 nm (OD600) and then calculating the number of bacterial cells present.

[2] = tested on: normal human ovarian surface epithelial (OSE) cells; assay type: cell-based; conditions: 5 days
Description: Cytotoxicity of the DCNPs was determined by treating normal human ovarian surface epithelial (OSE) cells with different concentrations of doxycycline-loaded nanoparticles, then monitoring cell viability over the next five days. The OSE cells were cultured for 4 to 7 days in flasks containing medium199/MCDB105 media supplemented with 10% fetal bovine serum. The cells were removed from the flasks and counted, and then 100 μL of medium containing cells was added to the wells of a 96-well plate to give final cell concentrations of 5×10^2, 1.0×10^3, or 2.0×10^3 cells/mL. After 24 hours incubation at 37° C., the cells were treated with blank nanoparticles, DCNP4 (1 and 2 μg/mL), DCNP6 (1 and 2 μg/mL), or unencapsulated doxycycline (1 and 2 μg/mL). The plate was then incubated at 37° C. Bright microscopy was used to examine the cell morphology after treatment just before the assessing for cytotoxicity. Cytotoxicity was assessed on days 1, 3, and 5 by WST-1 assay. WST-1 assay reagent (10 μL) was added to each well, followed by incubation for another 4 hours at 37° C. and then spectrophotometric assessment of cell viability. […] This dye was quantified using a Biotex Synergy multiplate reader to measure absorbance at 450 nm (reference wavelength was 630 nm). All treatments were assayed in triplicate (n=3) and calculated according to equation 5: […]

MIC [1]: 13 µg/mL (≈ 29.3 µM)
Compound: C[C@H]1c2cccc(O)c2C(=O)C2=C(O)[C@]3(O)C(=O)C(C(N)=O)=C(O)[C@@H](N(C)C)[C@@H]3[C@@H](O)[C@@H]21 [Doxy, Doxycycline]
decrease in cell viability [2]: 61%
